Laboratory results as given in PMC12920294, “Optimizing uPAR-targeting radiopeptides for improved tissue distribution: progress towards radionuclide therapy” (European Journal of Nuclear Medicine and Molecular Imaging, 2025).
Where two headings read alike, the source gives them in different places. Marks after values point to notes of the source that are not given here.

Legend:
[1] = test system: HEK-uPAR xenograft-bearing mice; settings: mouse, in vivo
[2] = set-up: method as in Beyer et al. 2025, Mol Pharm 22:3242; settings: saline, L-ascorbic acid, ref Beyer et al. 2025, Mol Pharm 22:3242, cited from earlier work
[3] = set-up: method as in Beyer et al. 2025, Mol Pharm 22:3242; settings: 37 °C, ref Beyer et al. 2025, Mol Pharm 22:3242, cited from earlier work
[4] = set-up: method as in Beyer et al. 2025, Mol Pharm 22:3242; settings: 37 °C, ref Beyer et al. 2025, Mol Pharm 22:3242, cited from earlier work; remark: listed apart in the source
[5] = set-up: method as in Beyer et al. 2025, Mol Pharm 22:3242; settings: FVB mice, ref Beyer et al. 2025, Mol Pharm 22:3242, cited from earlier work
human serum albumin = human serum albumin (Homo sapiens, UniProt P02768); settings: cited from earlier work
[6] = test system: HEK-uPAR xenograft-bearing mice; settings: ref Beyer et al. 2025, Mol Pharm 22:3242, cited from earlier work
[7] = Biodistribution in HEK-uPAR xenografted nude mice; settings: CD1 nude, mouse, 0.5 nmol/mouse, total radioactivity, 1 h p.i., decay-corrected
[8] = test system: HEK-uPAR xenograft-bearing mice; assay: Biodistribution in HEK-uPAR xenografted nude mice
[9] = non-decay-corrected, ± standard error

human serum albumin, sequence (P02768 25-609): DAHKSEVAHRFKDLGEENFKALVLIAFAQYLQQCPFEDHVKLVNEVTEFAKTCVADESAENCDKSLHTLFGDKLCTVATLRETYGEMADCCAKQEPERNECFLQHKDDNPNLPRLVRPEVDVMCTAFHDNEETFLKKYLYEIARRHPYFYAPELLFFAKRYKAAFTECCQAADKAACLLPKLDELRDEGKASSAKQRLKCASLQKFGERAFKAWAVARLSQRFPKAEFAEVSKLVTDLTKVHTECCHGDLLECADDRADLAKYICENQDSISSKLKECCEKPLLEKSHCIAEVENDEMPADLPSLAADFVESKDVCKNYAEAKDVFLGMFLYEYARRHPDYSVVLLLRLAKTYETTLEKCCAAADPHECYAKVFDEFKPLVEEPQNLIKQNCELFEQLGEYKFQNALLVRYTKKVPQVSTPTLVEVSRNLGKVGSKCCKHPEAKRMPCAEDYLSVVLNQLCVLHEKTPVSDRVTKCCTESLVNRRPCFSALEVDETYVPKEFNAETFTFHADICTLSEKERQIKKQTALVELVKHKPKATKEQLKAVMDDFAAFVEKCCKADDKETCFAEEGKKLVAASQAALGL

SMILES: CC(C)C[C@H](NC(=O)[C@H](Cc1ccc(O)cc1)NC(=O)[C@@H](CCCNC(=N)N)NC(=O)[C@@H](CO)NC(=O)[C@H](Cc1ccccc1)NC(=O)[C@H](CC1CCCCC1)NC(=O)[C@H](CC(=O)O)NC(=O)CN1CCN(CC(=O)O)CCN(CC(=O)O)CCN(CC(=O)O)CC1)C(=O)N[C@@H](Cc1c[nH]c2ccccc12)C(=O)N[C@@H](CO)C(N)=O [[^177Lu]Lu-DOTA-AE105, metal not drawn]
- Xgrft-to-kidney ratio [1]: 0.46 ± 0.07
- Radiolytic stability, intact radiopeptide ([2]; 1 h): 98 ± 2%
- Radiolytic stability, intact radiopeptide ([2]; 4 h): 98 ± 1%
- Radiolytic stability, intact radiopeptide ([2]; 24 h): 96 ± 2%
- Mouse blood plasma stability, intact radiopeptide ([3]; 1 h): 61 ± 6%
- Mouse blood plasma stability, intact radiopeptide ([3]; 4 h): 13 ± 7%
- Mouse blood plasma stability, intact radiopeptide ([3]; 24 h): 4.6 ± 2.2%
- Human blood plasma stability, intact radiopeptide ([4]; 1 h): 71 ± 3%
- Human blood plasma stability, intact radiopeptide ([4]; 4 h): 13 ± 6%
- Human blood plasma stability, intact radiopeptide ([4]; 24 h): 4.5 ± 1.2%
- Blood plasma, intact radiopeptide ([5]; 1 h p.i.): <1.0%
- Blood plasma, radiometabolite ([5]; 1 h p.i.): >99%
- Kidneys, intact radiopeptide ([5]; 1 h p.i.): <1.0%
- Kidneys, radiometabolite ([5]; 1 h p.i.): >99%
- Liver, intact radiopeptide ([5]; 1 h p.i.): <1.0%
- Liver, radiometabolite ([5]; 1 h p.i.): >99%
- Urine, intact radiopeptide ([5]; 1 h p.i.): 1.4%
- Urine, radiometabolite ([5]; 1 h p.i.): 99%
- Blood plasma, intact radiopeptide ([5]; 4 h p.i.): <1.0%
- Blood plasma, radiometabolite ([5]; 4 h p.i.): >99%
- Kidneys, intact radiopeptide ([5]; 4 h p.i.): <1.0%
- Kidneys, radiometabolite ([5]; 4 h p.i.): >99%
- Liver, intact radiopeptide ([5]; 4 h p.i.): <1.0%
- Liver, radiometabolite ([5]; 4 h p.i.): >99%
- Urine, intact radiopeptide ([5]; 4 h p.i.): 2.3%
- Urine, radiometabolite ([5]; 4 h p.i.): 98%
- Inverse relative albumin-binding affinity (human serum albumin): 0.02^a
- Blood uptake ([6]; 4 h p.i.): 0.08 ± 0.01 %IA/g
- Bone uptake ([6]; 4 h p.i.): 0.38 ± 0.03 %IA/g
- Brain uptake ([6]; 4 h p.i.): <0.03 %IA/g
- HEK-uPAR xenograft uptake ([6]; 4 h p.i.): 0.87 ± 0.05 %IA/g
- Heart uptake ([6]; 4 h p.i.): 0.06 ± 0.01 %IA/g
- Intestines uptake ([6]; 4 h p.i.): 0.31 ± 0.03 %IA/g
- Kidneys uptake ([6]; 4 h p.i.): 1.5 ± 0.1 %IA/g
- Liver uptake ([6]; 4 h p.i.): 0.10 ± 0.01 %IA/g
- Lung uptake ([6]; 4 h p.i.): 0.30 ± 0.02 %IA/g
- Muscle uptake ([6]; 4 h p.i.): <0.03 %IA/g
- Pancreas uptake ([6]; 4 h p.i.): 0.06 ± 0.01 %IA/g
- Salivary glands uptake ([6]; 4 h p.i.): 0.09 ± 0.01 %IA/g
- Spleen uptake ([6]; 4 h p.i.): 0.18 ± 0.02 %IA/g
- Stomach uptake ([6]; 4 h p.i.): 0.15 ± 0.03 %IA/g
- Xgrft-to-blood ratio ([6]; 4 h p.i.): 11 ± 1
- Xgrft-to-liver ratio ([6]; 4 h p.i.): 8.6 ± 0.4
- Blood uptake ([6]; 24 h p.i.): <0.03 %IA/g
- Bone uptake ([6]; 24 h p.i.): 0.84 ± 0.10 %IA/g
- Brain uptake ([6]; 24 h p.i.): <0.03 %IA/g
- HEK-uPAR xenograft uptake ([6]; 24 h p.i.): 0.40 ± 0.19 %IA/g
- Heart uptake ([6]; 24 h p.i.): 0.04 ± 0.01 %IA/g
- Intestines uptake ([6]; 24 h p.i.): 0.18 ± 0.02 %IA/g
- Kidneys uptake ([6]; 24 h p.i.): 1.3 ± 0.1 %IA/g
- Liver uptake ([6]; 24 h p.i.): 0.17 ± 0.01 %IA/g
- Lung uptake ([6]; 24 h p.i.): 0.21 ± 0.01 %IA/g
- Muscle uptake ([6]; 24 h p.i.): <0.03 %IA/g
- Pancreas uptake ([6]; 24 h p.i.): 0.06 ± 0.01 %IA/g
- Salivary glands uptake ([6]; 24 h p.i.): 0.09 ± 0.01 %IA/g
- Spleen uptake ([6]; 24 h p.i.): 0.23 ± 0.04 %IA/g
- Stomach uptake ([6]; 24 h p.i.): 0.17 ± 0.03 %IA/g
- Xgrft-to-blood ratio ([6]; 24 h p.i.): 32 ± 13
- Xgrft-to-liver ratio ([6]; 24 h p.i.): 2.4 ± 0.9
- tissue uptake at 1 h ([7]; HEK-uPAR xenograft, HEK-uPAR xenograft uptake): 1.9 ± 0.7 %ID/g
- tissue uptake at 1 h ([7]; blood, Blood uptake): 0.92 ± 0.4 %ID/g
- tissue uptake at 1 h ([7]; bone, Bone uptake): 0.35 ± 0.11 %ID/g
- tissue uptake at 1 h ([7]; brain, Brain uptake): < 0.03 %ID/g
- tissue uptake at 1 h ([7]; heart, Heart uptake): 0.38 ± 0.16 %ID/g
- tissue uptake at 1 h ([7]; intestines, Intestines uptake): 0.52 ± 0.1 %ID/g
- tissue uptake at 1 h ([7]; kidneys, Kidneys uptake): 4.2 ± 0.8 %ID/g
- tissue uptake at 1 h ([7]; liver, Liver uptake): 0.4 ± 0.14 %ID/g
- tissue uptake at 1 h ([7]; lung, Lung uptake): 1.2 ± 0.4 %ID/g
- tissue uptake at 1 h ([7]; muscle, Muscle uptake): 0.14 ± 0.06 %ID/g
- tissue uptake at 1 h ([7]; pancreas, Pancreas uptake): 0.26 ± 0.08 %ID/g
- tissue uptake at 1 h ([7]; salivary glands, Salivary glands uptake): 0.35 ± 0.13 %ID/g
- tissue uptake at 1 h ([7]; spleen, Spleen uptake): 0.47 ± 0.17 %ID/g
- tissue uptake at 1 h ([7]; stomach, Stomach uptake): 0.39 ± 0.2 %ID/g
- Xgrft-to-blood ratio ([8]; 1 h p.i.): 2.2 ± 0.2
- Xgrft-to-liver ratio ([8]; 1 h p.i.): 4.9 ± 0.1
- AUC0h→48h, HEK-uPAR xenograft [8, 9]: 26 ± 3 % IA/g*h
- AUC0h→48h, blood [8, 9]: 28 ± 1 % IA/g*h
- AUC0h→48h, kidneys [8, 9]: 62 ± 2 % IA/g*h
- AUC0h→48h, liver [8, 9]: 6.9 ± 0.2 % IA/g*h
